Columns and labels:
GSK3β = GSK3β (Homo sapiens, UniProt P49841); assay: Inhibitory activity against GSK3β (33P-ATP phosphorylation of prephosphorylated GS1 peptide, two protocols); type: biochemical; settings: first or second protocol not specified
Experimental: Inhibitory Activity of the Medicament of the Present Invention Against GSK3β Two different protocols can be used. In a first protocol : 7.5 μM of prephosphorylated GS1 peptide and 10 μM ATP (containing 300,000 cpm of 33P-ATP) were incubated in 25 mM Tris-HCl, pH 7.5, 0.6 mM DTT, 6 mM MgCl2, 0.6 mM EGTA, 0.05 mg/ml BSA buffer for 1 hour at room temperature in the presence of GSK3β (total reaction volume : 100 microliters). In a second protocol : 4.1 μM of prephosphorylated GS1 peptide and 42 μM ATP (containing 260,000 cpm 33P-ATP) were incubated in 80 mM Mes-NaOH, pH 6.5, 1 mM Mg acetate, 0.5 mM EGTA, 5 mM 2-mercaptoethanol, 0.02% Tween 20, 10% glycerol buffer for 2 hours at room temperature in the presence of GSK3β. Inhibitors were solubilised in DMSO (final solvent concentration in the reaction medium, 1%). The reaction was stopped with 100 microliters of a solution made of 25 g polyphosphoric acid (85% P2O5), 126 ml 85% H3PO4, H2O to 500 ml and then diluted to 1:100 before use. An aliquot of the reaction mixture was then transferred to Whatman P81 cation exchange filters and rinsed with the solution described above. Incorporated 33P radioactivity was determined by liquid scintillation spectrometry. The phosphorylated GS-1 peptide had the following sequence: NH2-[…](P)EDEE-COOH. […]

GSK3β, sequence (P49841 whole entry, species assumed): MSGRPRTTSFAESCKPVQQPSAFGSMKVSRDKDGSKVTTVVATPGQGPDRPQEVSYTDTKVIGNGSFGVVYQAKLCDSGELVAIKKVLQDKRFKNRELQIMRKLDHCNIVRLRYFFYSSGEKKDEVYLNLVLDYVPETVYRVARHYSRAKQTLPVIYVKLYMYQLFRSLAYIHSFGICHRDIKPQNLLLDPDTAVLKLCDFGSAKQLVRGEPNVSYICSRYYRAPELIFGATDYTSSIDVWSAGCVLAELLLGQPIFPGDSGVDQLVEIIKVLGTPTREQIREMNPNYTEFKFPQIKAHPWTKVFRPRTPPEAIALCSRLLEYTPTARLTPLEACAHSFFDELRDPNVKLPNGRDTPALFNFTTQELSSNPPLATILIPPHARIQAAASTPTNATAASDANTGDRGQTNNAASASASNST

Row | melting point [°C] | IC50 (GSK3β) [µM] | Compound
1 | 159 to 161 |  | O=c1cc(-c2ccncn2)nc2n(CC(O)c3ccccc3)ccn12 (stereo not shown) [compound 11, 1-(2-Hydroxy-2-phenyl-ethyl)-7-(pyrimidin-4-yl)-1H-imidazo[1,2-a]pyrimidin-5-one]
2 | 240 to 242 |  | O=C(Cn1ccn2c(=O)cc(-c3ccncn3)nc12)c1ccccc1 [compound 12, 1-(2-Oxo-2-phenyl-ethyl)-7-(pyrimidin-4-yl)-1H-imidazo[1,2-a]pyrimidin-5-one]
3 | 215 to 217 | 0.021 | O=c1cc(-c2ccncn2)nc2n(CCc3cccc4ccccc34)ccn12 [compound 6, 1-(2-Naphthalen-1-yl-ethyl)-7-(pyrimidin-4-yl)-1H-imidazo[1,2-a]pyrimidin-5-one]

Source: US7429663B2, “7-(Pyrimidin-4-yl)-Imidazo[1,2-a]Pyrimidin-5(1H)-ones as GSK3β inhibitors” (Sanofi-Aventis, priority 2002, dated 2008)
